Laboratory results published in BindingDB's records for doi:10.1021/jm031011g (Xenova, 2004).
pEC50: −log10 of the molar value.

What was measured:
[1] = biological target: Multidrug resistance-associated protein 1 (Homo sapiens) (UniProt P33527); assay: Effective concentration to inhibit MRP1 in potentiation assay
[2] = biological target: Multidrug resistance-associated protein 1 (Homo sapiens) (UniProt P33527); assay: as above; remark: listed apart in the source

Chain of Multidrug resistance-associated protein 1 (Homo sapiens) (P33527 whole entry, looked up): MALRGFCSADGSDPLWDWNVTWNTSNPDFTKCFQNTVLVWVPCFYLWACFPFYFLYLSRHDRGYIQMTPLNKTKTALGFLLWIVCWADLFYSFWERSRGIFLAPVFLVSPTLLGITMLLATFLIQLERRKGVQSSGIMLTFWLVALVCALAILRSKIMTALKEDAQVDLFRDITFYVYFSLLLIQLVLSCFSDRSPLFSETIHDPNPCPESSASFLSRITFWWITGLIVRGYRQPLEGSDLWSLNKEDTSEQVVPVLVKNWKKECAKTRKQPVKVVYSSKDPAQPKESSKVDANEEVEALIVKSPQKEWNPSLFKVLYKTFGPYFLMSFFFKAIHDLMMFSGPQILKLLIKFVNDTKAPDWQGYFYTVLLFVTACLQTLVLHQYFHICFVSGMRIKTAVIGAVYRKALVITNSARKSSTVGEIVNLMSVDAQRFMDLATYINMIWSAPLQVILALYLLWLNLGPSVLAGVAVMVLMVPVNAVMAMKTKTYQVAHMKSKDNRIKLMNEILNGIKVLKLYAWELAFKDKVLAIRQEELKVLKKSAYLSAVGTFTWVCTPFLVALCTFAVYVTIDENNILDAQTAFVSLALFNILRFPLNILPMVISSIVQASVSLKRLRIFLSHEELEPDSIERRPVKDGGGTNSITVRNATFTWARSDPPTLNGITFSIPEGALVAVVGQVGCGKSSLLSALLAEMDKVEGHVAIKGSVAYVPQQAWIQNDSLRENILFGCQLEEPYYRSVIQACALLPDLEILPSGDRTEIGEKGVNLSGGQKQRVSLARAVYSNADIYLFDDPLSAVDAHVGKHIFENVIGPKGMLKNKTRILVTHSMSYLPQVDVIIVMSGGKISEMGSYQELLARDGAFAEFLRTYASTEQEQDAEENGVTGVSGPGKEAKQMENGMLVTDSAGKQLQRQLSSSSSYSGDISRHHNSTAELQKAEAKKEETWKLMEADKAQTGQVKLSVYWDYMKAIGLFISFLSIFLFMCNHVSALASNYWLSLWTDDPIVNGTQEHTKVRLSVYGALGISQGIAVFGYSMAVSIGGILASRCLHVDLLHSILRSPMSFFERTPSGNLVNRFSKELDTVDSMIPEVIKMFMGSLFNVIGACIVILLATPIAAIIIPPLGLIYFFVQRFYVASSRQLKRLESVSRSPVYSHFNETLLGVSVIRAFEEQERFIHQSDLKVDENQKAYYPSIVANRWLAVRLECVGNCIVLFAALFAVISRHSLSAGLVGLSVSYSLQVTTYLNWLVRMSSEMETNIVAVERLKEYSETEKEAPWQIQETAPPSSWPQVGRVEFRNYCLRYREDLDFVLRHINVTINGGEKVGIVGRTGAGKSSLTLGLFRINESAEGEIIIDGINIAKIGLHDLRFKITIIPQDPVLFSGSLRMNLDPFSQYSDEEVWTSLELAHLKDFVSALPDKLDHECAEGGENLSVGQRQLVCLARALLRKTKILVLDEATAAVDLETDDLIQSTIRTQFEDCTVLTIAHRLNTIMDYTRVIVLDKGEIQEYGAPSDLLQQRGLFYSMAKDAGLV

Compound	pEC50 [1]	pEC50 [2]
O=C(NCc1ccccn1)c1c2n(c3c(N4CCN(CCc5ccc(F)c(F)c5)CC4)ncnc13)CCCC2 [4-{4-[2-(3,4-Difluoro-phenyl)-ethyl]-piperazin-1-yl}-6,7,8,9-tetrahydro-pyrimido[4,5-b]indolizine-10-carboxylic acid (pyridin-2-ylmethyl)-amide]	7.01	–
COc1cccc(CNC(=O)c2c3n(c4c(N5CCN(CCc6ccc(F)c(F)c6)CC5)ncnc24)CCCC3)c1OC [4-{4-[2-(3,4-Difluoro-phenyl)-ethyl]-piperazin-1-yl}-6,7,8,9-tetrahydro-pyrimido[4,5-b]indolizine-10-carboxylic acid 2,3-dimethoxy-benzylamide]	–	6.82
NC(=O)c1c2n(c3c(N4CCN(CCc5ccc(F)c(F)c5)CC4)ncnc13)CCCC2 [4-{4-[2-(3,4-Difluoro-phenyl)-ethyl]-piperazin-1-yl}-6,7,8,9-tetrahydro-pyrimido[4,5-b]indolizine-10-carboxylic acid amide]	6.93	–
